Measured values: patent publication US11083725B2 (priority 2014, dated 2021)

Test system: NHBE cells
Test: Biolog metabolic array: substrate use by NHBE cells with or without CA09 infection
Format: cell-based, human
Details: for Substrate use, 590 nm absorbance normalized to zero hour, 1 hr: Biolog PMM2, 1 hr; for Substrate use, 590 nm absorbance normalized to zero hour, 5 hr: Biolog PMM2, 5 hr; for Substrate use, 590 nm absorbance normalized to zero hour, 7 hr: Biolog PMM2, 7 hr
[1] = Control (uninfected) NHBE cells
[2] = Virus (CA09-infected, MOI 1) NHBE cells
[3] = Virus: CA09-infected NHBE cells, MOI 1, Biolog PMM2
[4] = Virus (CA09-infected NHBE cells, MOI 1)

Structure (SMILES)	590 nm absorbance normalized to zero hour (substrate use), 1 hr [1]	590 nm absorbance normalized to zero hour (substrate use), 2 hr [1]	590 nm absorbance normalized to zero hour (substrate use), 3 hr [1]	590 nm absorbance normalized to zero hour (substrate use), 4 hr [1]	590 nm absorbance normalized to zero hour (substrate use), 6 hr [1]	590 nm absorbance normalized to zero hour (substrate use), 8 hr [1]	590 nm absorbance normalized to zero hour (substrate use), 9 hr [1]	590 nm absorbance normalized to zero hour (substrate use), 10 hr [1]	590 nm absorbance normalized to zero hour (substrate use), 11 hr [1]	Substrate use, 590 nm absorbance normalized to zero hour, 1 hr [1]	Substrate use, 590 nm absorbance normalized to zero hour, 5 hr [1]	Substrate use, 590 nm absorbance normalized to zero hour, 7 hr [1]	590 nm absorbance normalized to zero hour (substrate use), 1 hr [3]	590 nm absorbance normalized to zero hour (substrate use), 2 hr [3]	590 nm absorbance normalized to zero hour (substrate use), 3 hr [3]	590 nm absorbance normalized to zero hour (substrate use), 4 hr [3]	590 nm absorbance normalized to zero hour (substrate use), 5 hr [3]	590 nm absorbance normalized to zero hour (substrate use), 6 hr [3]	590 nm absorbance normalized to zero hour (substrate use), 7 hr [3]	590 nm absorbance normalized to zero hour (substrate use), 8 hr [3]	further results
CC(=O)C(=O)O [Pyruvic Acid]	1.34	1.40	1.54	1.61	1.39	1.57	1.71	1.81	2.49	1.34	1.70	1.52	1.27	0.82	0.94	1.20	1.10	1.09	1.06	0.67	590 nm absorbance normalized to zero hour (substrate use), 1 hr [2]: 1.27; 590 nm absorbance normalized to zero hour (substrate use), 2 hr [2]: 0.82; 590 nm absorbance normalized to zero hour (substrate use), 3 hr [2]: 0.94; 590 nm absorbance normalized to zero hour (substrate use), 4 hr [2]: 1.20; 590 nm absorbance normalized to zero hour (substrate use), 5 hr [2]: 1.10; 590 nm absorbance normalized to zero hour (substrate use), 6 hr [2]: 1.09; 590 nm absorbance normalized to zero hour (substrate use), 7 hr [2]: 1.06; 590 nm absorbance normalized to zero hour (substrate use), 8 hr [2]: 0.67; 590 nm absorbance normalized to zero hour (substrate use), 9 hr [2]: 0.65; 590 nm absorbance normalized to zero hour (substrate use), 10 hr [2]: 0.75; 590 nm absorbance normalized to zero hour (substrate use), 11 hr [2]: 0.61; 590 nm absorbance normalized to zero hour (substrate use), 9 hr [3]: 0.65; 590 nm absorbance normalized to zero hour (substrate use), 10 hr [3]: 0.75; 590 nm absorbance normalized to zero hour (substrate use), 11 hr [3]: 0.61
OC[C@@H](O)[C@@H](O)[C@H](O)[C@H](O)CO [D-Mannitol]	0.96	0.94	1.00	0.99	0.34	0.74	0.79	0.74	0.64	0.96	0.91	0.81	0.20	0.27	0.32	0.34	0.40	0.42	0.44	0.47	590 nm absorbance normalized to zero hour (substrate use), 1 hr [2]: 0.20; 590 nm absorbance normalized to zero hour (substrate use), 2 hr [2]: 0.27; 590 nm absorbance normalized to zero hour (substrate use), 3 hr [2]: 0.32; 590 nm absorbance normalized to zero hour (substrate use), 4 hr [2]: 0.34; 590 nm absorbance normalized to zero hour (substrate use), 5 hr [2]: 0.40; 590 nm absorbance normalized to zero hour (substrate use), 6 hr [2]: 0.42; 590 nm absorbance normalized to zero hour (substrate use), 7 hr [2]: 0.44; 590 nm absorbance normalized to zero hour (substrate use), 8 hr [2]: 0.47; 590 nm absorbance normalized to zero hour (substrate use), 9 hr [2]: 0.52; 590 nm absorbance normalized to zero hour (substrate use), 10 hr [2]: 0.53; 590 nm absorbance normalized to zero hour (substrate use), 11 hr [2]: 0.57; 590 nm absorbance normalized to zero hour (substrate use), 9 hr [3]: 0.52; 590 nm absorbance normalized to zero hour (substrate use), 10 hr [3]: 0.53; 590 nm absorbance normalized to zero hour (substrate use), 11 hr [3]: 0.57
COC(=O)C(C)=O [Methyl Pyruvate]	1.32	1.57	1.25	1.36	0.77	1.65	1.74	1.79	1.76	1.32	1.59	1.51	1.93	2.20	2.60	2.51	2.66	2.87	2.99	3.03	590 nm absorbance normalized to zero hour (substrate use), 1 hr [2]: 1.93; 590 nm absorbance normalized to zero hour (substrate use), 2 hr [2]: 2.20; 590 nm absorbance normalized to zero hour (substrate use), 3 hr [2]: 2.60; 590 nm absorbance normalized to zero hour (substrate use), 4 hr [2]: 2.51; 590 nm absorbance normalized to zero hour (substrate use), 5 hr [2]: 2.66; 590 nm absorbance normalized to zero hour (substrate use), 6 hr [2]: 2.87; 590 nm absorbance normalized to zero hour (substrate use), 7 hr [2]: 2.99; 590 nm absorbance normalized to zero hour (substrate use), 8 hr [2]: 3.03; 590 nm absorbance normalized to zero hour (substrate use), 9 hr [2]: 3.24; 590 nm absorbance normalized to zero hour (substrate use), 10 hr [2]: 3.21; 590 nm absorbance normalized to zero hour (substrate use), 11 hr [2]: 3.04; 590 nm absorbance normalized to zero hour (substrate use), 9 hr [3]: 3.24; 590 nm absorbance normalized to zero hour (substrate use), 10 hr [3]: 3.21; 590 nm absorbance normalized to zero hour (substrate use), 11 hr [3]: 3.04
OC[C@H]1O[C@@H](O[C@H]2[C@H](O)[C@@H](O)[C@@H](O)O[C@@H]2CO)[C@H](O)[C@@H](O)[C@H]1O [a-D-Lactose]	0.44	0.58	0.65	0.69	0.63	0.94	1.01	1.02	0.92	0.44	0.82	0.88	0.17	0.22	0.26	0.28	0.33	0.35	0.37	0.39	590 nm absorbance normalized to zero hour (substrate use), 0 hr [1]: 1.00; Substrate use, 590 nm absorbance normalized to zero hour, 0 hr (Control (uninfected) NHBE cells, Biolog PMM2, 0 hr): 1.00; 590 nm absorbance normalized to zero hour (substrate use), 0 hr [4]: 1.00; 590 nm absorbance normalized to zero hour (substrate use), 1 hr [4]: 0.17; 590 nm absorbance normalized to zero hour (substrate use), 2 hr [4]: 0.22; 590 nm absorbance normalized to zero hour (substrate use), 3 hr [4]: 0.26; 590 nm absorbance normalized to zero hour (substrate use), 4 hr [4]: 0.28; 590 nm absorbance normalized to zero hour (substrate use), 5 hr [4]: 0.33; 590 nm absorbance normalized to zero hour (substrate use), 6 hr [4]: 0.35; 590 nm absorbance normalized to zero hour (substrate use), 7 hr [4]: 0.37; 590 nm absorbance normalized to zero hour (substrate use), 8 hr [4]: 0.39; 590 nm absorbance normalized to zero hour (substrate use), 9 hr [4]: 0.42; 590 nm absorbance normalized to zero hour (substrate use), 10 hr [4]: 0.41; 590 nm absorbance normalized to zero hour (substrate use), 11 hr [4]: 0.39; 590 nm absorbance normalized to zero hour (substrate use), 0 hr [3]: 1.00; 590 nm absorbance normalized to zero hour (substrate use), 9 hr [3]: 0.42; 590 nm absorbance normalized to zero hour (substrate use), 10 hr [3]: 0.41; 590 nm absorbance normalized to zero hour (substrate use), 11 hr [3]: 0.39
